Test results reported in BigSolDB 2.1.

Details: in n-octanol

| SMILES | solubility (mole fraction) (298.15 K) | solubility (mole fraction) (303.15 K) | solubility (mole fraction) (308.15 K) | solubility (mole fraction) (313.15 K) | solubility (mole fraction) (318.15 K) | solubility (mole fraction) (323.15 K) | solubility (mole fraction) (328.15 K) | solubility (mole fraction) (333.15 K) |
| --- | --- | --- | --- | --- | --- | --- | --- | --- |
| COc1cc(NS(=O)(=O)c2ccc(N)cc2)nc(OC)n1 | 0.000167 | 0.00018 | 0.000194 | 0.000213 | 0.000235 | 0.000261 | 0.000294 | 0.000332 |
| COc1cc(NS(=O)(=O)c2ccc(N)cc2)ncn1 |  | 8.68e-05 | 9.52e-05 | 0.000104 |  | 0.00012 | 0.000129 | 0.000136 |
| COc1cnc(NS(=O)(=O)c2ccc(N)cc2)nc1 | 8.8e-05 | 9.42e-05 | 0.000101 | 0.000108 | 0.000115 | 0.000123 | 0.000132 | 0.000141 |
